Holding throughout (assay): Kinobeads competition binding, HL60 cell lysate
Common to all, as to conditions: 10 μM free compound

For one assay, the target named is MAP3K1 (Homo sapiens, UniProt Q13233). Set-up: endogenous in cells. In a few lines:
(§1)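 Relative binding comes from iTRAQ reporter signals after Kinobeads-style pull-down from HL60 lysate in the presence of 10 μM free compound versus solvent.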

A further assay has as its target CK2a2 (Homo sapiens, UniProt P19784). Set-up: endogenous in cells. In a few lines:
as §1

The next assay concerns the target CaMK2g (Homo sapiens, UniProt Q13555). Set-up: endogenous in cells; host or cells: HL60 cells. The protocol: (§2) To one aliquot of cell lysate 10 μM of the free compound (FIG. 3, CZC31326) was added and allowed to bind to proteins in the lysate. Then the affinity matrix with the immobilized compound (Example 1) was added to capture proteins that were not interacting with the previously added free compound. Beads were separated from the lysate and bead bound proteins were eluted in SDS sample buffer and subsequently separated by SDS-Polyacrylamide gel electrophoresis (FIG. 4). Suitable gel bands were cut out and subjected to in-gel proteolytic digestion with trypsin. The second lysate aliquot was processed identically, however no free compound was added (DMSO solvent control). Peptides originating from samples 1 and 2 were labeled with iTRAQ reagents (iTRAQ 114 and iTRAQ 117) and the combined samples were analyzed with a nano-flow liquid chromatography system coupled online to a tandem mass spectrometer (LC-MS/MS) experiment followed by iTRAQ reporter ion quantification in the MS/MS spectra (Ross et al., 2004. Mol. Cell. Proteomics 3(12):1154-1169). Further experimental protocols can be found in WO2006/134056 and a previous publication (Bantscheff et al., 2007. Nature Biotechnology 25, 1035-1044). Sepharose-beads with the immobilized compound (100 μl beads per pull-down experiment) were equilibrated in lysis buffer and incubated with a cell lysate sample containing 50 mg of protein on an end-over-end shaker (Roto Shake Genie, Scientific Industries Inc.) for 2 hours at 4° C. Beads were collected, transferred to Mobicol-columns (MoBiTech 10055) and washed with 10 ml lysis buffer containing 0.4% NP40 detergent, followed by 5 ml lysis buffer containing 0.2% detergent. To elute bound proteins, 60 μl 2×SDS sample buffer was added to the column. The column was incubated for 30 minutes at 50° C. and the eluate was transferred to a siliconized microfuge tube by centrifugation. Proteins were then alkylated with 108 mM iodoacetamid. Proteins were then separated by SDS-Polyacrylamide electrophoresis (SDS-PAGE). The peptide extracts of samples treated with 10 μM of free compound (CZC31326) and the solvent control (0.5% DMSO) were treated with different variants of the isobaric tagging reagent (iTRAQ Reagents Multiplex Kit, part number 4352135, Applied Biosystems, Foster City, Calif., USA). The iTRAQ reagents are a set of multiplexed, amine-specific, stable isotope reagents that can label peptides on amino groups in up to four different biological samples enabling simultaneous identification and quantitation of peptides. The iTRAQ reagents were used according to instructions provided by the manufacturer. The samples were resuspended in 10 μl 50 mM TEAB solution, pH 8.5 and 10 μl ethanol were added. The iTRAQ reagent was dissolved in 120 μl ethanol and 10 μl of reagent solution were added to the sample. The labeling reaction was performed at room temperature for one hour on a horizontal shaker and stopped by adding 5 μl of 100 mM TEAB and 100 mM glycine in water. The two labeled sampled were then combined, dried in a vacuum centrifuge and resuspended in 10 μl of 0.1% formic acid in water. Relative protein quantitation was performed using peak areas of iTRAQ reporter ion signals essentially as described in an earlier publication (Bantscheff et al., 2007. Nature Biotechnology 25, 1035-1044).

The target in a further assay is AMPKa1 (Homo sapiens, UniProt Q13131). Set-up: endogenous in cells; host or cells: HL60 cells. The protocol: as §2
For a further assay, the target named is T1, AurA (Homo sapiens, UniProt O14965).
T1 sequence (O14965 1-403): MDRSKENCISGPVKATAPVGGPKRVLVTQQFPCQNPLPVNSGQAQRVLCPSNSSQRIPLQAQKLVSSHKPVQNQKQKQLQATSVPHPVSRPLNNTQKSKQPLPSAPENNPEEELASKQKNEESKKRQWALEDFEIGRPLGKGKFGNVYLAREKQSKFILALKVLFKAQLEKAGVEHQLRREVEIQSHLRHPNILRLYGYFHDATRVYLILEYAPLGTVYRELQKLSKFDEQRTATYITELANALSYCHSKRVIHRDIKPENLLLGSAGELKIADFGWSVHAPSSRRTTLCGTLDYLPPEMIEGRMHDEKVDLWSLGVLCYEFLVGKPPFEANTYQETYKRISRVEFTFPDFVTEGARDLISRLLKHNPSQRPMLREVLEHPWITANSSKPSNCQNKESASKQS
Set-up: endogenous in cells; host or cells: HL60 cells. How it is done: as §2

A further assay addresses RSK3 (Homo sapiens, UniProt Q15349). Set-up: endogenous in cells; host or cells: HL60 cells. How it is done: as §2
The target of another assay is QIK (Homo sapiens, UniProt Q9H0K1). Set-up: endogenous in cells; host or cells: HL60 cells. The protocol: as §2
Another assay has as its target BIKE (Homo sapiens, UniProt Q9NSY1). Set-up: endogenous in cells; host or cells: HL60 cells. The protocol: as §2
The next assay addresses CHK1 (Homo sapiens, UniProt O14757). Set-up: endogenous in cells; host or cells: HL60 cells. The protocol:
as §2

In a further assay the target is CDK5 (Homo sapiens, UniProt Q00535). Set-up: endogenous in cells; host or cells: HL60 cells. How it is done:
as §2

Structures are written as SMILES.

As usually defined, the inhibition is the change of the read-out against control, counted positive when it falls. A low value points to a response near the control. Consider `CS(=O)(=O)Nc1ccccc1Nc1nc(Nc2cccc(OCCN)c2)ncc1Cl` [CZC31326, N-(2-(2-(3-(2-aminoethoxy)phenylamino)-5-chloropyrimidin-4-ylamino)phenyl)methanesulfonamide], for which the inhibition at 10 µM was determined as 87% at MAP3K1; 97.7% at CK2a2; 90.4% at CaMK2g; 97.7% on AMPKa1; 96.6% on AurA; 96.9% on RSK3. The figures for the inhibition at 10 µM at QIK, at BIKE and at CDK5 were 94.2%, 97.6% and 95.2%, respectively. Besides, the Competition % on CHK1 is reported as 95.7%.

The record behind these values is patent US20120270237A9, “METHODS FOR THE IDENTIFICATION OF KINASE INTERACTING MOLECULES AND FOR THE PURIFICATION OF KINASE PROTEINS” (Cellzone AG, priority 2009, published 2012).
